Values of other authors as cited in article PMC5320730, “Synthetic curcumin derivative DK1 possessed G2/M arrest and induced apoptosis through accumulation of intracellular ROS in MCF-7 breast cancer cells” (Cancer Cell International, 2017).

Test system: MCF-7 cells
Conditions: cited from earlier work

| Compound | SI (normal vs cancerous cell line) | SI value (on MCF-7) |
| --- | --- | --- |
| 4-hydroxy tamoxifen | < 2 | – |
| O=C1c2ccccc2C(=O)c2c(O)cc(Br)cc21 [BHAQ, 3-Bromo-1-hydroxy-9,10-anthraquinone] | – | 2.31 |
